Molecular target: T1, PaD2HGDH; Pseudomonas aeruginosa D-2-hydroxyglutarate dehydrogenase (Pseudomonas aeruginosa, UniProt Q9I6H4)
T1 construct: gene PA0317; recombinant from pET20b(+) harboring PA0317 (GenScript), purified to homogeneity; FAD- and Zn2+-containing
T1 sequence (Q9I6H4 1-464): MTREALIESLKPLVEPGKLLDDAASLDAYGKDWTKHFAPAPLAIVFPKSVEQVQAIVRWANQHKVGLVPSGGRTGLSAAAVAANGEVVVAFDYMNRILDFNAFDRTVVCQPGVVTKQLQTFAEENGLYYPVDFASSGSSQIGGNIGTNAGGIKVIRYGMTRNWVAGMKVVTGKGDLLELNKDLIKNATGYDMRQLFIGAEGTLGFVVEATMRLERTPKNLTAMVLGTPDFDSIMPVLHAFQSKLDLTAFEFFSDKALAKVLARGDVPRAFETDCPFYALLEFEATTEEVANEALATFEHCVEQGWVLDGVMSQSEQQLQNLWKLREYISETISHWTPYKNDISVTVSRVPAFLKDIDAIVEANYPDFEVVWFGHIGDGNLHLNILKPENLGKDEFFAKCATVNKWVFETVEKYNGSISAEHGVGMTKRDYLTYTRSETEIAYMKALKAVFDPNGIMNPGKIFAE
Test: UV-visible absorption of enzyme-bound flavin, anaerobic reduction by D-malate
Type: binding
Conditions: 1 mM ZnCl2, pH 10.0, 25 °C; co-purified bound cofactor

## Cc1cc2nc3c(=O)[nH]c(=O)nc-3n(C[C@H](O)[C@H](O)[C@H](O)COP(=O)(O)OP(=O)(O)OC[C@H]3O[C@@H](n4cnc5c(N)ncnc54)[C@H](O)[C@@H]3O)c2cc1C [FAD]
  UV-visible absorption of enzyme-bound flavin, anaerobic reduction by D-malate: characteristic properties of a fully reduced PaD2HGDH-bound flavin, as previously reported
